{"source": "the NIST ThermoML archive (doi:10.1021/je400722h)", "key": {"[1]": {"conditions": "101 kPa, Liquid; for speed of sound: Pulse-echo method; for mass density: Vibrating tube method"}, "[2]": {"test": "xn = mol fraction of the nth substance listed", "conditions": "101 kPa, Liquid, x2 = 0; for speed of sound: Pulse-echo method; for mass density: Vibrating tube method"}}, "note": "Numbers after ± are expanded uncertainties."}
{"smiles": "C1COCO1", "note": "[1,3-dioxolane]", "values": [{"measurement": "speed of sound", "setting": "[1]; 298.15 K", "result": "1338.7 ± 1.1", "unit": "m/s"}, {"measurement": "mass density", "setting": "[1]; 298.15 K", "result": "1058.9 ± 1", "unit": "kg/m3"}, {"measurement": "speed of sound", "setting": "[1]; 303.15 K", "result": "1316.8 ± 1", "unit": "m/s"}, {"measurement": "mass density", "setting": "[1]; 303.15 K", "result": "1052.6 ± 1", "unit": "kg/m3"}, {"measurement": "speed of sound", "setting": "[1]; 308.15 K", "result": "1294.7 ± 1", "unit": "m/s"}, {"measurement": "mass density", "setting": "[1]; 308.15 K", "result": "1046.3 ± 1", "unit": "kg/m3"}]}
{"smiles": "C1COCO1", "note": "[1,3-dioxolane] + Cc1ccccc1Cl", "values": [{"measurement": "speed of sound", "setting": "[2]; 298.15 K", "result": "1338.7 ± 1.1", "unit": "m/s"}, {"measurement": "mass density", "setting": "[2]; 298.15 K", "result": "1058.9 ± 1", "unit": "kg/m3"}, {"measurement": "speed of sound", "setting": "[2]; 303.15 K", "result": "1316.8 ± 1", "unit": "m/s"}, {"measurement": "mass density", "setting": "[2]; 303.15 K", "result": "1052.6 ± 1", "unit": "kg/m3"}, {"measurement": "speed of sound", "setting": "[2]; 308.15 K", "result": "1294.7 ± 1", "unit": "m/s"}, {"measurement": "mass density", "setting": "[2]; 308.15 K", "result": "1046.3 ± 1", "unit": "kg/m3"}]}
{"smiles": "C1COCCO1", "note": "[1,4-dioxane]", "values": [{"measurement": "speed of sound", "setting": "[1]; 298.15 K", "result": "1346 ± 1.1", "unit": "m/s"}, {"measurement": "mass density", "setting": "[1]; 298.15 K", "result": "1027.9 ± 1", "unit": "kg/m3"}, {"measurement": "speed of sound", "setting": "[1]; 303.15 K", "result": "1324.4 ± 1.1", "unit": "m/s"}, {"measurement": "mass density", "setting": "[1]; 303.15 K", "result": "1022.3 ± 1", "unit": "kg/m3"}, {"measurement": "speed of sound", "setting": "[1]; 308.15 K", "result": "1302.5 ± 1.1", "unit": "m/s"}, {"measurement": "mass density", "setting": "[1]; 308.15 K", "result": "1016.6 ± 1", "unit": "kg/m3"}]}
{"smiles": "C1COCCO1", "note": "[1,4-dioxane] + Cc1ccccc1Cl", "values": [{"measurement": "speed of sound", "setting": "[2]; 298.15 K", "result": "1346 ± 1.1", "unit": "m/s"}, {"measurement": "mass density", "setting": "[2]; 298.15 K", "result": "1027.9 ± 1", "unit": "kg/m3"}, {"measurement": "speed of sound", "setting": "[2]; 303.15 K", "result": "1324.4 ± 1.1", "unit": "m/s"}, {"measurement": "mass density", "setting": "[2]; 303.15 K", "result": "1022.3 ± 1", "unit": "kg/m3"}, {"measurement": "speed of sound", "setting": "[2]; 308.15 K", "result": "1302.5 ± 1.1", "unit": "m/s"}, {"measurement": "mass density", "setting": "[2]; 308.15 K", "result": "1016.6 ± 1", "unit": "kg/m3"}]}
{"smiles": "Cc1ccccc1Cl", "note": "[2-chlorotoluene]", "values": [{"measurement": "speed of sound", "setting": "[1]; 298.15 K", "result": "1298.7 ± 1.2", "unit": "m/s"}, {"measurement": "mass density", "setting": "[1]; 298.15 K", "result": "1077.3 ± 1", "unit": "kg/m3"}, {"measurement": "speed of sound", "setting": "[1]; 303.15 K", "result": "1280.7 ± 1.2", "unit": "m/s"}, {"measurement": "mass density", "setting": "[1]; 303.15 K", "result": "1072.5 ± 1", "unit": "kg/m3"}, {"measurement": "speed of sound", "setting": "[1]; 308.15 K", "result": "1262.7 ± 1.2", "unit": "m/s"}, {"measurement": "mass density", "setting": "[1]; 308.15 K", "result": "1067.6 ± 1", "unit": "kg/m3"}]}
{"smiles": "C1CCOCC1", "note": "[tetrahydropyran]", "values": [{"measurement": "speed of sound", "setting": "[1]; 298.15 K", "result": "1269.8 ± 1", "unit": "m/s"}, {"measurement": "mass density", "setting": "[1]; 298.15 K", "result": "879.13 ± 1", "unit": "kg/m3"}, {"measurement": "speed of sound", "setting": "[1]; 303.15 K", "result": "1246.8 ± 1", "unit": "m/s"}, {"measurement": "mass density", "setting": "[1]; 303.15 K", "result": "873.99 ± 1", "unit": "kg/m3"}, {"measurement": "speed of sound", "setting": "[1]; 308.15 K", "result": "1224.4 ± 1", "unit": "m/s"}, {"measurement": "mass density", "setting": "[1]; 308.15 K", "result": "868.83 ± 1", "unit": "kg/m3"}]}
{"smiles": "C1CCOCC1", "note": "[tetrahydropyran] + Cc1ccccc1Cl", "values": [{"measurement": "speed of sound", "setting": "[2]; 298.15 K", "result": "1269.8 ± 1", "unit": "m/s"}, {"measurement": "mass density", "setting": "[2]; 298.15 K", "result": "879.13 ± 1", "unit": "kg/m3"}, {"measurement": "speed of sound", "setting": "[2]; 303.15 K", "result": "1246.8 ± 1", "unit": "m/s"}, {"measurement": "mass density", "setting": "[2]; 303.15 K", "result": "873.99 ± 1", "unit": "kg/m3"}, {"measurement": "speed of sound", "setting": "[2]; 308.15 K", "result": "1224.4 ± 1", "unit": "m/s"}, {"measurement": "mass density", "setting": "[2]; 308.15 K", "result": "868.83 ± 1", "unit": "kg/m3"}]}
